{"source": "patent US6380161B1", "about": "“Compositions for treating chemotherapy-resistant tumor cells and targeted chemotherapy compositions” (priority 1999, dated 2002)", "key": {"[1]": {"system": "Doxorubicin and multidrug-resistant CHO Cells", "assay": "Coadministration of peptides and doxorubicin on resistant CHO cells", "assay_type": "cell-based", "conditions": "peptide coadministered with doxorubicin, not linked", "procedure": "Doxorubicin and multidrug-resistant CHO cells were treated with a 7 coadministration of peptides and doxorubicin. In this example the peptides were not linked to the doxorubicin, but were only administered at the same time."}, "[2]": {"system": "Wild-type CHO Cells", "assay": "Cell viability / in vitro LD50 on wild-type CHO cells (ALAMAR BLUE)", "assay_type": "cell-based", "procedure": "(§1) Doxorubicin and multidrug-resistant CHO cells were cultured using standard tissue culture conditions: 37° C., DMEM media, serum free conditions, with 5% CO2 for pH adjustment. The cells were treated for 24 hours with either doxorubicin or Dox-P, the peptide conjugate prepared in Example 1, at concentrations of 0.25, 0.5, 0.75, and 1.0 mM. Untreated cells were used as a negative control.\nCell viability was measured using the ALAMAR BLUE™ assay (available from Biosource International, Camarillo, Calif.). The assay quantitatively measures the proliferation of cell lines and can establish the relative cytotoxicity of chemical agents. The assay incorporates a fluorometric/colorimetric growth indicator based on detection of metabolic activity. The system incorporates an oxidation-reduction (redox) indicator that both fluoresces and changes color in response to chemical reduction of growth medium resulting from cell growth. This causes the redox indicator to change from its oxidized, non-fluorescent, blue form to its reduced, fluorescent, red form. Data can be collected using either fluorescence-based instrumentation (530-560 nm excitation wavelength and 590 nm emission wavelength) or absorbance-based instrumentation (570 nm and 600 nm). […]\nThe LD50, the dose at which half of the cells die, was calculated from Dox and Dox-P dose response curves for five different cell lines, as shown in Table 1."}, "[3]": {"system": "Doxorubicin and multidrug-resistant CHO Cells", "assay": "Cell viability / in vitro LD50 on drug-resistant CHO cells (ALAMAR BLUE)", "assay_type": "cell-based", "conditions": "24 hours, 0.25, 0.5, 0.75 and 1.0 mM", "procedure": "as §1\nCell viability was measured using the ALAMAR BLUE™ assay (available from Biosource International, Camarillo, Calif.). The assay quantitatively measures the proliferation of cell lines and can establish the relative cytotoxicity of chemical agents. The assay incorporates a fluorometric/colorimetric growth indicator based on detection of metabolic activity. The system incorporates an oxidation-reduction (redox) indicator that both fluoresces and changes color in response to chemical reduction of growth medium resulting from cell growth. This causes the redox indicator to change from its oxidized, non-fluorescent, blue form to its reduced, fluorescent, red form. Data can be collected using either fluorescence-based instrumentation (530-560 nm excitation wavelength and 590 nm emission wavelength) or absorbance-based instrumentation (570 nm and 600 nm)."}, "[4]": {"system": "B16-F10 melanoma cells", "assay": "Adhesion of B16-F10 melanoma cells to coated wells", "assay_type": "cell-based", "conditions": "wells covered with 40 μg/ml", "procedure": "An adhesion study was performed to evaluate the adhesion of B16-F10 melanoma cells (a nonresistant cell line) to doxorubicin and the doxorubicin-peptide conjugate of Example 1. In a 96 well plate, duplicate wells were covered with 40 μg/ml either TSP, Dox-P, the Cys(Acm)-Ser-Val-Thr-Cys(Acm)-Gly (SEQ ID NO: 6) peptide, Dox, the scrambled peptide Val-Cys-Thr-Gly-Ser-Cys (SEQ ID NO: 3), the Cys(Acm)Ser-Val-Thr-Cys-(Acm)-Gly (SEQ ID NO: 6) peptide with a d orientation, or 1% bovine serum albumin (BSA). The wells were dried out overnight and then blocked with BSA. 100 μl of a suspension containing 2×10^5 B16-F-10 melanoma cells were plated in the protein covered wells and incubated at 37° C. for 20 minutes to 1 hour. The non-adherent cells were removed and the wells were washed with a Hepes buffer. The adherent cells were fixed with 2.5% glutaraldehyde for 10 minutes and stained with 0.2% Giemsa. The stain was washed off and the cells were counted in a field of 1 mm square. Cells adhering to BSA were considered background."}, "[5]": {"system": "Melanoma tumor cells", "assay": "Melanoma tumor development (lung tumor colonies) in mice", "assay_type": "in vivo", "conditions": "intraperitoneally 24 and 96 hours after tumor implantation, 18 μM/kg, versus buffer", "procedure": "This experiment was designed to evaluate whether the conjugation of the peptide to doxorubicin altered its ability to prevent wild-type, nonresistant tumor development in mice. Melanoma tumor cells were injected into mice. The animals (5 in each group) were treated intraperitoneally 24 and 96 hours after tumor implantation with either buffer alone, Dox-P, the Cys(Acm)-Ser-Val-Thr-Cys(Acm)-Gly (SEQ ID NO: 6) peptide, or Dox, at a concentration of 18 μM/kg. The mice were sacrificed and the melanoma tumor colonies on the lung were counted. […] Additionally, the tumor colonies in the Dox-P and the Dox groups were 2-5 fold smaller than in the buffer group."}, "[6]": {"system": "B16-F10 Melanoma", "assay": "In vitro LD50 from dose response curves (ALAMAR BLUE cell viability)", "assay_type": "cell-based", "conditions": "dose at which half of the cells die"}, "[7]": {"system": "Lewis Lung Carcinoma", "assay": "In vitro LD50 from dose response curves (ALAMAR BLUE cell viability)", "assay_type": "cell-based", "conditions": "dose at which half of the cells die"}, "[8]": {"system": "Human Breast Carcinoma", "assay": "In vitro LD50 from dose response curves (ALAMAR BLUE cell viability)", "assay_type": "cell-based", "conditions": "dose at which half of the cells die"}, "[9]": {"conditions": "mice, 68 mg/kg (same number of doxorubicin molecules as Dox 30 mg/kg), 3 mice treated"}}, "note": "Entries after “also recorded” stand apart in the source; their conditions may differ. Read-outs that look alike come from different tables or passages of the source. Residues, ends and D or L forms follow the SMILES beside them. No end group written: not given here. *: point of attachment. X1 = COc1cccc2c1C(=O)c1c(O)c3c(c(O)c1C2=O)CC(O)(C(=O)CO)C[C@@H]3O[C@H]1C[C@H](N*)[C@H](O)[C@H](C)O1; Acm = CC(=O)NC*", "data": [{"compound": "ASVTAR", "values": [{"measurement": "Effect of peptide on doxorubicin toxicity of resistant CHO cells", "setting": "[1]", "value": "shows a dose-response effect"}]}, {"compound": "COc1cccc2c1C(=O)c1c(O)c3c(c(O)c1C2=O)CC(O)(C(=O)CO)C[C@@H]3O[C@H]1C[C@H](NC(=O)CNC(=O)[C@H](CSCNC(C)=O)NC(=O)[C@@H](NC(=O)[C@@H](NC(=O)[C@H](CO)NC(=O)[C@H](CSCNC(C)=O)NC(C)=O)C(C)C)[C@@H](C)O)[C@H](O)[C@H](C)O1", "note": "(stereo partly drawn) [Dox-P] (Ac-C(Acm)SVTC(Acm)G-X1)", "values": [{"measurement": "Effect on wild-type CHO cell viability", "setting": "[2]; 24 hours, 0.25-1.0 mM, compared with Dox alone", "value": "appears to function more effectively against wild-type CHO cells than Dox alone"}, {"measurement": "Effect on drug-resistant CHO cell viability (dose response)", "setting": "[3]", "value": "dramatic dose-response effect"}, {"measurement": "Adhesion of B16-F10 melanoma cells", "setting": "[4]", "value": "does not destroy its adhesive activity"}, {"measurement": "Toxicity Results: body weight change", "setting": "[9]", "value": "some small weight gain"}, {"measurement": "Toxicity Results: survival", "setting": "[9]", "value": 3, "unit": "mice lived"}, {"measurement": "Melanoma tumor development (number of lung tumor colonies / lung metastasis)", "setting": "[5]", "value": "inhibit the development of lung metastasis; also recorded: effective at preventing tumor development"}]}, {"compound": "COc1cccc2c1C(=O)c1c(O)c3c(c(O)c1C2=O)C[C@@](O)(C(=O)CO)C[C@@H]3O[C@H]1C[C@H](N)[C@H](O)[C@H](C)O1", "note": "[Dox, doxorubicin, reference compound]", "values": [{"measurement": "In Vitro LD50", "setting": "[2]; Wild-type CHO Cells, dose at which half of the cells die", "value": 1.0, "unit": "mM"}, {"measurement": "Effect on drug-resistant CHO cell viability (dose response)", "setting": "[3]", "value": "negligible effect"}, {"measurement": "In Vitro LD50", "setting": "[6]", "value": 0.30, "unit": "mM"}, {"measurement": "In Vitro LD50", "setting": "[7]", "value": 0.20, "unit": "mM"}, {"measurement": "Toxicity Results: survival", "setting": "mice, 30 mg/kg, 3 mice treated", "value": 3, "unit": "mice died^1"}, {"measurement": "Toxicity Results: body weight change", "setting": "mouse, in vivo, 30 mg/kg", "value": "significant weight loss"}, {"measurement": "Melanoma tumor development (number of lung tumor colonies / lung metastasis)", "setting": "[5]", "value": "inhibit the development of lung metastasis; also recorded: effective at preventing tumor development"}, {"measurement": "In Vitro LD50", "setting": "[8]", "value": 1.0, "unit": "mM"}]}, {"compound": "Cys(Acm)-Ser-Val-Thr-Cys(Acm)-Gly (C(Acm)SVTC(Acm)G) [thrombospondin-derived hexapeptide with cysteine sulfur protected by acetamidomethyl (Acm) groups]", "values": [{"measurement": "Effect of peptide on doxorubicin toxicity of resistant CHO cells", "setting": "[1]", "value": "did not show any effect"}, {"measurement": "Melanoma tumor development (number of lung tumor colonies / lung metastasis)", "setting": "[5]", "value": "lower number of tumors than buffer alone"}, {"measurement": "Melanoma tumor development (number of lung tumor colonies / lung metastasis)", "setting": "[5]; listed as peptide", "value": "inhibit the development of lung metastasis"}]}]}
